Reference: PMC8343220, “The selectivity of α‐adrenoceptor agonists for the human α1A, α1B, and α1D‐adrenoceptors” (Pharmacology Research & Perspectives, 2021)
Where “and” joins values, the source holds several entries; their conditions need not be identical. Equal entries are not always repeated. Where two headings read alike, the source gives them in different places.

Legend:
[1] = molecular target: T1, human α1D‐adrenoceptor (full length) (Homo sapiens, UniProt P25100); experiment: ^3H‐cAMP accumulation, CHO‐α1D cells; assay type: cell-based; settings: cAMP accumulation without forskolin
T1 construct: human α1D‐adrenoceptor (full length) were used; expressed in transfected cells; host or cells: CHO-K1
T1 sequence (P25100 1-572): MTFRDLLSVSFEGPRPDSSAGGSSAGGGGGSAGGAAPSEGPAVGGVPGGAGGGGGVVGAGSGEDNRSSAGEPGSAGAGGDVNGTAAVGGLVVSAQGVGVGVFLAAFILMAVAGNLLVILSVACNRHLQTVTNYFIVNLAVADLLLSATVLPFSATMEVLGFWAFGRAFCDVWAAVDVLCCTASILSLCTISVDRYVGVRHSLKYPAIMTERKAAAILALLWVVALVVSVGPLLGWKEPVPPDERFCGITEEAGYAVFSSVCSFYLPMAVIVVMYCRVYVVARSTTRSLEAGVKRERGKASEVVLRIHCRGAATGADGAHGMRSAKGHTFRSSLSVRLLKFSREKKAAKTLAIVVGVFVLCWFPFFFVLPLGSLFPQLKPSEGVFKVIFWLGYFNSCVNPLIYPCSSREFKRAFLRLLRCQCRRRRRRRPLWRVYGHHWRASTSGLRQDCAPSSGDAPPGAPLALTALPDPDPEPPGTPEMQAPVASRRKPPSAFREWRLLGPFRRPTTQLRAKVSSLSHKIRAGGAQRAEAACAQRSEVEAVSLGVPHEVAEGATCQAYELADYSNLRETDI

[2] = molecular target: T1, human α1D‐adrenoceptor (full length); experiment: ERK1/2‐phosphorylation (Surefire Alphascreen), CHO‐α1D cells; assay type: cell-based; settings: for EC50: log values given negative, read-out: ERK1/2‐phosphorylation Log EC50 (converted)
[3] = molecular target: T1, human α1D‐adrenoceptor (full length); experiment: Intracellular free calcium mobilization, CHO‐α1D cells; assay type: cell-based; settings: CHO‐α1D cells; for EC50: read-out: Intracellular calcium release Log EC50 (converted); for Intracellular calcium release % ionomycin: maximal response as % of 10 µM ionomycin
human α1A‐adrenoceptor [4] = molecular target: T2, human α1A‐adrenoceptor (Homo sapiens, UniProt P35348); experiment: Intracellular free calcium mobilization, CHO‐α1A cells; assay type: cell-based; settings: CHO‐α1A cells; for Intracellular calcium release % ionomycin: maximal response as % of 10 µM ionomycin
T2 construct: expressed in transfected cells; host or cells: CHO-K1
T2 sequence (P35348 1-466): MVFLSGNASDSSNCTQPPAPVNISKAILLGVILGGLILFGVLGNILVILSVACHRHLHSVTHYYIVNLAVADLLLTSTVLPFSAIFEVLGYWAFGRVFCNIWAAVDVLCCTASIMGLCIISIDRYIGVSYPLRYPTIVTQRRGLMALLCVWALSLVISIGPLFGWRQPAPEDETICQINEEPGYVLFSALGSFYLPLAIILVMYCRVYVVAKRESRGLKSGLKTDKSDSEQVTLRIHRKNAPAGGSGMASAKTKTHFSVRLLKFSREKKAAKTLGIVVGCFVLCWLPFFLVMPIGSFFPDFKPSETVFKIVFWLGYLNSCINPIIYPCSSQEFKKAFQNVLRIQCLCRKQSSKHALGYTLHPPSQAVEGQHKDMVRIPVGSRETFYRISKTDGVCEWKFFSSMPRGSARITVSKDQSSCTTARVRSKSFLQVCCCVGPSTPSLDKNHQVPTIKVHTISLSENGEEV

human α1B‐adrenoceptor [5] = molecular target: T3, human α1B‐adrenoceptor (Homo sapiens, UniProt P35368); experiment: Intracellular free calcium mobilization, CHO‐α1B cells; assay type: cell-based; settings: CHO‐α1B cells; for Intracellular calcium release % ionomycin: maximal response as % of 10 µM ionomycin response
T3 construct: expressed in transfected cells; host or cells: CHO-K1
T3 sequence (P35368 1-520): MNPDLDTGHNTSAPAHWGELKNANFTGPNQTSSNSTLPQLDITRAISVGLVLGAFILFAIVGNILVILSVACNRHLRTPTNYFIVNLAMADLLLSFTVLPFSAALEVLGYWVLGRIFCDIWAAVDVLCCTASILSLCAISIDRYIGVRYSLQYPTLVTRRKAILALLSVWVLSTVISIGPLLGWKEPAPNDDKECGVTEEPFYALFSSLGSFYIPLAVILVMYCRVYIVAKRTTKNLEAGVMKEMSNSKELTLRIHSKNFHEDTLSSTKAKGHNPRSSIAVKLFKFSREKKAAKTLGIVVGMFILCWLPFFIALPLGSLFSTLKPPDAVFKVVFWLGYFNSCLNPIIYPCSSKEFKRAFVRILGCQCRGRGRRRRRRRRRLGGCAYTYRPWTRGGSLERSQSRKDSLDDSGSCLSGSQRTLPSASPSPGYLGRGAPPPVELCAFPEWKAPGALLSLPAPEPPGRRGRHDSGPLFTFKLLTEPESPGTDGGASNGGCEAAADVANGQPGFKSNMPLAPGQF

human α1A‐adrenoceptor [6] = molecular target: T2, human α1A‐adrenoceptor; experiment: ERK1/2‐phosphorylation (Surefire Alphascreen), CHO‐α1A cells; assay type: cell-based; settings: CHO‐α1A cells, ^a bi‐phasic: initial stimulatory part; for ERK1/2‐phosphorylation % PDBu: % of 10 µM PDBu
human α1B‐adrenoceptor [7] = molecular target: T3, human α1B‐adrenoceptor; experiment: ^3H‐cAMP accumulation, CHO‐α1B cells; assay type: cell-based; settings: CHO‐α1B cells; for cAMP accumulation % forskolin: % forskolin maximum response
human α1A‐adrenoceptor [8] = molecular target: T2, human α1A‐adrenoceptor; experiment: ^3H‐cAMP accumulation, CHO‐α1A cells; assay type: cell-based; settings: CHO‐α1A cells; for cAMP accumulation % forskolin: % of 10 µM forskolin response
[9] = molecular target: T1, human α1D‐adrenoceptor (full length); experiment: ^3H‐cAMP accumulation in the presence of 10 μM forskolin, CHO‐α1D cells; assay type: cell-based; settings: CHO‐α1D cells
human α1B‐adrenoceptor [10] = molecular target: T3, human α1B‐adrenoceptor; experiment: ERK1/2‐phosphorylation (Surefire Alphascreen), CHO‐α1B cells; assay type: cell-based
[11] = molecular target: T1, human α1D‐adrenoceptor (full length); experiment: ^3H‐prazosin whole‐cell radioligand binding, CHO‐α1D cells; settings: CHO‐α1D cells
human α1A‐adrenoceptor [12] = molecular target: T2, human α1A‐adrenoceptor; experiment: ^3H‐prazosin whole‐cell radioligand binding, CHO‐α1A cells
[13] = test system: parental CHO cell line without any transfected receptors; experiment: Forskolin‐stimulated cAMP accumulation, parent CHO cells without transfected receptors; assay type: cell-based, Chinese hamster; settings: CHO cells without transfected receptors; in presence of forskolin
[14] = test system: parental CHO cell line without any transfected receptors; experiment: ERK1/2‐phosphorylation, parent CHO cells without transfected receptors; assay type: cell-based, Chinese hamster; settings: for ERK1/2-phosphorylation % PDBu: CHO cells without transfected receptors, maximal response as % of PDBu (10μM) response, mean ± s.e.m.
human α1A‐adrenoceptor [15] = molecular target: T2, human α1A‐adrenoceptor; experiment: ^3H‐cAMP accumulation in the presence of 10 μM forskolin, CHO‐α1A cells; assay type: cell-based
human α1B‐adrenoceptor [16] = molecular target: T3, human α1B‐adrenoceptor; experiment: ^3H‐prazosin whole‐cell radioligand binding, CHO‐α1B cells; settings: CHO‐α1B cells
human α1B‐adrenoceptor [17] = molecular target: T3, human α1B‐adrenoceptor; experiment: ^3H‐cAMP accumulation in the presence of 10 μM forskolin, CHO‐α1B cells; assay type: cell-based; settings: CHO‐α1B cells; in presence of forskolin
[18] = CHO‐α1D cells, maximal response as % of PDBu
[19] = in presence of forskolin, log values given negative
[20] = CHO‐α1B cells, maximal response as % PDBu response, for bi‐phasic responses the initial stimulatory part
[21] = given as log KD (negative), mean ± SEM, 'early plateau' = specific binding not fully inhibited

Row | Structure (SMILES) | cAMP Log EC50 [1] | EC50 ([2]; CHO‐α1D cells) [µM] | ERK1/2‐phosphorylation % PDBu [2, 18] [%] | EC50 ([3]; log values given negative) [µM] | Intracellular calcium release % ionomycin (human α1A‐adrenoceptor [4]) [%] | Intracellular calcium release % ionomycin (human α1B‐adrenoceptor [5]) [%] | ERK1/2‐phosphorylation % PDBu (human α1A‐adrenoceptor [6]) | cAMP accumulation % forskolin (human α1B‐adrenoceptor [7]) [%] | cAMP accumulation % forskolin (human α1A‐adrenoceptor [8]) | EC50 [9, 19] [µM] | ERK1/2‐phosphorylation % PDBu (human α1B‐adrenoceptor [10]; [20]) [%] | cAMP accumulation (in presence of forskolin) Log EC50 [13] | Intracellular calcium release % ionomycin [3] [%] | ERK1/2-phosphorylation % PDBu [14] | also measured
1 | CNC[C@H](O)c1cccc(O)c1 [R‐phenylephrine] | No response | 0.676 | 15.8 ± 2.9 | 0.0631 | 58.3 ± 2.9 | 67.0 ± 3.3 | 84.5 ± 4.5% | 86.2 ± 5.3 | 132.5 ± 4.5% | 0.17 | 77.0 ± 4.8 |  |  |  | Kd [11, 21]: 22.4 µM
2 | NCC(O)c1ccc(O)cc1 (stereo not drawn) [Octopamine] | No response | 18.6 |  | 6.31 | 57.5 ± 2.1 | 54.9 ± 2.9 | 81.2 ± 6.8% |  |  | 1.82 | 76.1 ± 6.8 | No response |  |  | Kd (human α1A‐adrenoceptor [12]; Log KD α1A, ^3H‐prazosin whole cell binding, CHO‐α1A cells, given as log KD (negative), mean ± SEM): 363 µM; Affinity selectivity ratio α1A vs α1B (human α1A‐adrenoceptor [12]; higher affinity for α1A than α1B): >2.8 fold; Affinity selectivity ratio α1A vs α1D (human α1A‐adrenoceptor [12]; higher affinity for α1A than α1D): >2.8 fold; ERK1/2‐phosphorylation % PDBu [2]: 14.5 ± 5.9%; Log efficacy ratio KD /EC50 ([3]; intrinsic efficacy ratio, binding KD / calcium EC50): >2.20; Emax at 100 µM ([14]; Cricetulus griseus, CHO, read-out: ERK1/2-phosphorylation % PDBu at 100μM): 2.9 ± 1.8%; Log efficacy ratio KD /EC50 (human α1A‐adrenoceptor [4]; binding KD and calcium EC50): 2.66; EC50 (human α1A‐adrenoceptor [4]; given as log EC50 (negative), read-out: Intracellular calcium release Log EC50 (converted)): 0.794 µM; EC50 (human α1B‐adrenoceptor [5]; given as log EC50 (negative numbers), read-out: Intracellular calcium release Log EC50 (converted)): 1.23 µM; Log efficacy ratio KD /EC50 (human α1B‐adrenoceptor [5]; intrinsic efficacy ratio, KD from binding / EC50 calcium, log): >2.91; EC50 (human α1A‐adrenoceptor [6]; 2–4 min, ^b also active in parent CHO cells, read-out: ERK1/2‐phosphorylation Log EC50 (converted)): 4.17 µM; cAMP accumulation (in presence of forskolin) Fold increase at 100 µM (human α1A‐adrenoceptor [15]; CHO‐α1A cells, response at 100 μM ligand, no EC50 obtained): 1.89 ± 0.06 fold; cAMP accumulation % forskolin at 100 µM (human α1A‐adrenoceptor [8]; response at 100 μM ligand, no EC50 obtained): 18.0 ± 1.5%; cAMP (in presence of forskolin) Fold increase ([9]; fold increase of the forskolin response): 1.17 ± 0.06; EC50 (human α1B‐adrenoceptor [10]; CHO‐α1B cells, for bi‐phasic responses the initial stimulatory part, read-out: ERK1/2‐phosphorylation Log EC50 (converted)): 7.76 µM; 3H‐prazosin binding log IC50 (bound, printed in Log KD column) ([11]; whole‐cell binding, given as IC50 > log value): IC50 > −3; IC50 ([11]; printed as IC50> log value): > 1000 µM; IC50 (human α1B‐adrenoceptor [16]; printed as IC50> log value): > 1000 µM
3 | CNC[C@H](O)c1ccc(O)c(O)c1 [Adrenaline] | No response | 0.182 | 32.2 ± 4.0 | 0.0182 | 58.9 ± 3.7 |  | 71.3% and 71.3 ± 7.7% | 172.1 ± 11.3 | 164% and 164.0 ± 7.3% | 0.871 |  | No response | 30.3 ± 2.3 | No response | Intracellular calcium release % ionomycin (human α1A‐adrenoceptor [4]; listed as adrenaline): 58.9%; Gi‐mediated inhibition of forskolin‐stimulated cAMP, CHO‐α1A cells (human α1A‐adrenoceptor [15]): did not inhibit cAMP accumulation; ERK1/2‐phosphorylation % PDBu (human α1B‐adrenoceptor [10]): 76.6 ± 9.0%; Kd ([11]; Log KD α1D, ^3H‐prazosin whole cell binding, given as log KD (negative), mean ± SEM, 'early plateau' = specific binding not fully inhibited): 6.46 µM
4 | CS(=O)(=O)Nc1c(O)ccc2c1CCCC2C1=NCCN1 (stereo not drawn) [A61603] | No response |  |  |  | 61.0 ± 3.8 | 35.7 ± 3.7 | 74.8 ± 4.5% | 5.3 ± 0.5 | 142.7 ± 8.7% |  | 54.5 ± 7.9 | No response | 12.0 ± 3.6 | No response | cAMP accumulation (in presence of forskolin) Log EC50 (human α1B‐adrenoceptor [17]): −6.16 ± 0.09; ERK1/2‐phosphorylation % PDBu at 100 µM ([2]; CHO‐α1D cells, response at 100 µM ligand (no EC50 given)): 11.7 ± 2.9%; Intracellular calcium release Log EC50 ([3]; log values given negative): −5.29 ± 0.12; Intracellular calcium release Log EC50 (human α1B‐adrenoceptor [5]; given as log EC50 (negative numbers)): −6.52 ± 0.08; cAMP accumulation Log EC50 (human α1B‐adrenoceptor [7]): −5.63 ± 0.18; cAMP (in presence of forskolin) Log EC50 [9, 19]: No response; 3H‐prazosin binding Log KD ([11]; whole‐cell binding (from Table 1), log values given negative): −3.92; Log KD α1D, ^3H‐prazosin whole cell binding [11, 21]: −3.92 ± 0.11; IC50 (log), ^3H‐prazosin binding (human α1B‐adrenoceptor [16]; log IC50 bound given where no KD could be determined): IC50 > −4; Log IC50 α1B, ^3H‐prazosin whole cell binding (human α1B‐adrenoceptor [16]; printed as IC50> log value): IC50 >−4
